Common to all, as to format: biochemical
The target of one assay is Collagenase. Description: Fluorimetric enzyme inhibition assay with peptide substrate (Example A), collagenase. To be noted: Ki (app) assumed to approximate true Ki; substrate approx. 20 μm, pH 7.5, overnight. How it is done: (§1) All enzyme assays to determine Ki values were performed using the peptide substrate Dnp-Pro-Leu-Gly-Trp-Ala-D-Arg-NH2. (M. Sharon Stock and Rober D. Gray, JBC 264, 4277-81, 1989). The enzymes cleave at the Gly-Leu bond which can be followed fluorimetrically by measuring the increase in Trp fluorescence emission associated with the removal of the quenching dinitrophenol (Dnp) group.
(§2) Essentially, enzyme (e.g. gelatinase, stromelysin, coilagenase) at 0.08-2 nM; a range of inhibitor concentrations (0.1-50×Ki) and substrate (approx. 20 μm) are incubated overnight in 0.1M Tris/HCl buffer, pH 7.5, containing 0.1M NaCl, 10 mM CaCl2 and 0.05%. Brij 35 at either room temperature or 37° C. depending on the enzyme. The reaction is stopped by adjusting the pH to 4 using 0.1M sodium acetate buffer and the fluorescence read at an excitation wavelength of 280nm and emission wavelength of 346nm.
(§3) Ki values can be established using the equation for tight-binding inhibition: [formula] where Vo is the initial rate of reaction in the absence of inhibitor, Vi is the initial rate in the presence of inhibitor, [E] is the total enzyme concentration and [I] the total inhibitor concentration in the reaction mixture.
(§4) For stromelysin and collagenase, Ki (app) was assumed to approximate to the true Ki as [S]<<Km for the substrate hydrolysis. For gelatinase the Ki was determined by performing the analyses at several substrate concentrations. A plot of Ki (app) vs. [S] then gave the true Ki as the value of the y-axis intercept.

A further assay deals with Stromelysin-1 (Homo sapiens, UniProt P08254). Description: Fluorimetric enzyme inhibition assay with peptide substrate (Example A), stromelysin-1. The note with it: Ki (app) assumed to approximate true Ki; substrate approx. 20 μm, pH 7.5, overnight. On the procedure: as §1, §2, §3, §4
Another assay addresses T1, Gelatinase -72 KD (Homo sapiens, UniProt P08253).
T1 sequence (P08253 110-660): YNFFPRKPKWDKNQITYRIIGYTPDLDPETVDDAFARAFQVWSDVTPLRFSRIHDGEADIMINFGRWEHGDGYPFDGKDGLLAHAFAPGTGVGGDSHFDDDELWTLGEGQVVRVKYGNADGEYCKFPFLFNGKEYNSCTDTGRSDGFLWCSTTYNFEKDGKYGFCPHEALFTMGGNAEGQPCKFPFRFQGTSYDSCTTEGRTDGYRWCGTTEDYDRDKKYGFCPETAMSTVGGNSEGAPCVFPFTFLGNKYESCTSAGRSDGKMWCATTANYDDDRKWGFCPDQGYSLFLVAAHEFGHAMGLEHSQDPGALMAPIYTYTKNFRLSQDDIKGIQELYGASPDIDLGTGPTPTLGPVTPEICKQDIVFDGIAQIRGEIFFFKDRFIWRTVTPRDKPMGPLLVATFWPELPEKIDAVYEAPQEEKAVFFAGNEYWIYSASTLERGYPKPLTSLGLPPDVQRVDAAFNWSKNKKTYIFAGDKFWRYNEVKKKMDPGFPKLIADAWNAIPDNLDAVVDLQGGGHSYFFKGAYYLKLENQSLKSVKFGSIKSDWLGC
Description: Fluorimetric enzyme inhibition assay with peptide substrate (Example A), gelatinase. The note with it: true Ki from plot of Ki (app) vs. [S], y-axis intercept; pH 7.5, overnight. On the procedure: as §1, §2, §3, §4

Where a name gives a salt, the structure may show the parent alone.

Stromelysin-1, sequence (P08254 100-477, species assumed): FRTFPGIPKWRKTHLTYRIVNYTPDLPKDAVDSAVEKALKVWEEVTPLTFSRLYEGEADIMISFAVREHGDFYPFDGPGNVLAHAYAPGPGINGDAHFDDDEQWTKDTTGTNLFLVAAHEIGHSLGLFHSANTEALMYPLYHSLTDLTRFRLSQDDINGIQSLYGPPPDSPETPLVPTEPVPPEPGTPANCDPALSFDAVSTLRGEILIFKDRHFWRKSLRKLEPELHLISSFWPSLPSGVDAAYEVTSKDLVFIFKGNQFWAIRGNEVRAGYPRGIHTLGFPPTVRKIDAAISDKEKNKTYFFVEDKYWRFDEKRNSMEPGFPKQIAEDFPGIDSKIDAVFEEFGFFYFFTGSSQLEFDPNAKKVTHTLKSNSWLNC

Consider `NS(=O)(=O)c1ccc(CCNC(=O)[C@H](CC2CCCCC2)NC(=O)[C@H](CCCc2ccncc2)CC(=O)NO)cc1` [Example 8, {4-(N-Hydroxyamino)-2-(R)-(3-(4-pyridinium)propyl)succinyl}-L-β-cyclohexylalanine-N-(2-(p-sulphonamidophenyl)ethyl)amide trifluoroacetate], for which the Ki at Collagenase was determined as 215 nM; on Stromelysin-1, 11.8 nM; at Gelatinase -72 KD, 0.059 nM.

`O=C(C[C@@H](CCOc1ccccc1)C(=O)N[C@@H](CC1CCCCC1)C(=O)NCCc1ccccc1)NO` [Example 3, 4-(N-Hydroxyamino)-2-(R)-(3-(2-phenoxyethyl)succinyl)-L-β-cyclohexylalanine-N-(2-phenylethyl)amide]: the Ki on Collagenase amounted to 478 nM; on Stromelysin-1 it was 29.7 nM; at Gelatinase -72 KD, 0.273 nM.

Take `O=C(C[C@@H](CCCc1ccncc1)C(=O)N[C@@H](CC1CCCCC1)C(=O)NCCc1ccccc1)NO` [Example 5, {4-(N-hydroxyamino)-2(R)-(3-(4-pyridinium)propyl)succinyl}-L-β-cyclohexylalanine-N-(2-phenylethyl)amide trifluoroacetate]: the Ki on Collagenase was 186 nM; at Stromelysin-1, 12.6 nM; on Gelatinase -72 KD, 0.035 nM.

Take `C[n+]1ccc(CCC[C@H](CC(=O)NO)C(=O)N[C@@H](CC2CCCCC2)C(=O)NCCc2ccccc2)cc1` [Example 6, {4-(N-hydroxyamino)-2-(R)-3-(N-methyl-4-pyridinium)propylsuccinyl}-L-β-cyclohexylalanine-N-(2-phenylethyl)amide iodide]: the Ki at Collagenase turned out to be 22000 nM; on Stromelysin-1, 681 nM; on Gelatinase -72 KD, 8.42 nM.

`O=C(O)C[C@@H](CCOc1ccccc1)C(=O)N[C@@H](CC1CCCCC1)C(=O)NCCc1ccccc1` [Example 2]: the Ki at Collagenase was 48800 nM; on Stromelysin-1, 1510 nM; on Gelatinase -72 KD it was 22.2 nM.

Values taken from patent publication US5569665A, “Peptidyl derivatives and their use as metalloproteinases inhibitors” (Celltech Limited, priority 1992, dated 1996).
